Data as given in patent US5288709A, “Erythromycin derivatives” (priority 1991, dated 1994).
In brackets after ≈: the same amount, converted by molar mass. Like-named read-outs stand apart in the source and are kept apart here.

Columns and labels:
Experiment in all cases: In-vitro antimicrobial activity primary screen (agar dilution MIC)
Format in all cases: cell-based
[1] = test system: Staphylococcus aureus A5177; details: Staphylococcus aureus A5177, BHI agar, 20-24 h
Experimental: (§1) The antimicrobial spectra of several of the compounds of the present invention were tested as described below.
(§2) Twelve petri dishes containing successive aqueous dilutions of the test compounds, mixed with 10 mL of sterilized Brain Heart Infusion (BHI) agar (Difco 0418-01-5), were prepared. Each plate was inoculated with 1:100 (or 1:10 for slow growing strains (primarily Micrococcus and Streptococcus) dilutions of up to 32 different microorganisms, using a Steers replicator block. The inoculated plates were incubated at 35 37° C. for 20-24 hours. In addition, a control plate, using BHI agar containing no test compound, was prepared and incubated at the beginning and the end of each test.
(§3) An additional plate containing a compound having known susceptibility patterns for the organisms being tested and belonging to the same antibiotic class as the test compounds was also prepared and incubated as a further control, as well as to provide test-to test comparability.
(§4) After incubation, each plate was read. The MIC (minimum inhibitory concentration) is defined as the lowest concentration of test compound yielding no growth, a slight haze, or sparsely isolated colonies on the inoculum spot as compared to the growth control containing no test compound.

[2] = test system: Pseudomonas aeruginosa BMH10; details: BHI agar, 20-24 h
Experimental: as §1, §2, §3, §4

[3] = test system: Staphylococcus aureus 45; details: BHI agar, 20-24 h
Experimental: as §1, §2, §3, §4

[4] = test system: Staphylococcus aureus 45 RAR2; details: BHI agar, 20-24 h
Experimental: as §1, §2, §3, §4

[5] = test system: Streptococcus pyrogenes EES61; details: BHI agar, 20-24 h
Experimental: as §1, §2, §3, §4

[6] = test system: Pseudomonas aeruginosa K799/61; details: Pseudomonas aeruginosa K799/61, BHI agar, 20-24 h
Experimental: as §1, §2, §3, §4

[7] = test system: Escherichia coli JUHL
Experimental: as §1, §2, §3, §4

[8] = test system: Escherichia coli SS; details: BHI agar, 20-24 h
Experimental: as §1, §2, §3, §4

[9] = test system: Staphylococcus aureus ATCC 6538P; details: BHI agar, 20-24 h
Experimental: as §1, §2, §3, §4

[10] = test system: Pseudomonas aeruginosa A5007
Experimental: as §1, §2, §3, §4

[11] = test system: Streptococcus agalactiae CMX 508; details: BHI agar, 20-24 h
Experimental: as §1, §2, §3, §4

[12] = test system: Pseudomonas aeruginosa K799/WT
Experimental: as §1, §2, §3, §4

[13] = test system: Klebsiella pneumoniae ATCC 8045
Experimental: as §1, §2, §3, §4

[14] = test system: Escherichia coli DC-2
Experimental: as §1, §2, §3, §4

[15] = test system: Staphylococcus epidermidis 3519; details: BHI agar, 20-24 h
Experimental: as §1, §2, §3, §4

[16] = test system: Micrococcus luteus ATCC 9341; details: 20-24 h
Experimental: as §1, §2, §3, §4

[17] = test system: Enterococcus faecium ATCC 8043
Experimental: as §1, §2, §3, §4

[18] = test system: Streptococcus pyrogenes 2548 INDUC; details: BHI agar, 20-24 h
Experimental: as §1, §2, §3, §4

[19] = test system: Escherichia coli H560
Experimental: as §1, §2, §3, §4

[20] = test system: Acinetobacter SP CMX 669
Experimental: as §1, §2, §3, §4

[21] = test system: Providencia stuartii CMX 640
Experimental: as §1, §2, §3, §4

[22] = test system: Pseudomonas cepacia 2961; details: BHI agar, 20-24 h
Experimental: as §1, §2, §3, §4

[23] = test system: Streptococcus bovis A5169; details: BHI agar, 20-24 h
Experimental: as §1, §2, §3, §4

[24] = test system: Enterobacter aerogenes ATCC 13048
Experimental: as §1, §2, §3, §4

[25] = test system: Micrococcus luteus ATCC 4698; details: BHI agar, 20-24 h
Experimental: as §1, §2, §3, §4

[26] = test system: Staphylococcus aureus CMX 686B; details: BHI agar, 20-24 h
Experimental: as §1, §2
as §3, with “comparability. Erythromycin A was used for this purpose.” for “comparability.”
as §4

[27] = test system: Staphylococcus aureus CMX 503A; details: BHI agar, 20-24 h
Experimental: as §1, §2
as §3, with “comparability. Erythromycin A was used for this purpose.” for “comparability.”
as §4

[28] = test system: Staphylococcus aureus CMX 553; details: BHI agar, 20-24 h
Experimental: as §1, §2
as §3, with “comparability. Erythromycin A was used for this purpose.” for “comparability.”
as §4

CC[C@H]1OC(=O)[C@H](C)[C@@H](O[C@H]2C[C@@](C)(OC)[C@H](NCc3ccccc3)[C@H](C)O2)[C@H](C)[C@@H](O[C@@H]2O[C@H](C)C[C@H](N(C)C)[C@H]2O)[C@](C)(O)C[C@@H](C)[C@@H]2O[C@@]1(C)C(=O)[C@H]2C [Example 12, (4"R,9S)-9-Deoxo-4", 11,12-trideoxy-9,12-epoxy-11-oxo-4"-[(phenylmethyl)amino]erythromycin A] showed an MIC ([1]; read-out: MIC) of 0.39 µg/mL (≈ 0.484 µM), an MIC ([2]; Pseudomonas aeruginosa, BMH10, 24 h) of over 100 µg/mL and an MIC ([3]; read-out: MIC) of 0.2 µg/mL (≈ 0.248 µM). It also gave an MIC ([4]; Staphylococcus aureus, 45RAR2, 24 h) of 0.39 µg/mL (≈ 0.484 µM), an MIC ([5]; read-out: MIC) of 0.1 µg/mL (≈ 0.124 µM) and an MIC ([6]; Pseudomonas aeruginosa, K799/61, 24 h) of 3.1 µg/mL (≈ 3.85 µM). For the same molecule, the MIC ([7]; Escherichia coli, 24 h) was over 100 µg/mL, the MIC ([8]; read-out: MIC) was 3.1 µg/mL (≈ 3.85 µM) and the MIC ([9]; Staphylococcus aureus, ATCC6538P, 24 h) was 0.39 µg/mL (≈ 0.484 µM). It also gave an MIC ([10]; Pseudomonas aeruginosa, A5007, 24 h) of over 100 µg/mL, an MIC ([11]; Streptococcus agalactiae, CMX508, 24 h) of 0.1 µg/mL (≈ 0.124 µM) and an MIC ([12]; Pseudomonas aeruginosa, K799/WT, 24 h) of 100 µg/mL (≈ 124 µM). It also gave an MIC ([13]; Klebsiella pneumoniae, ATCC8045, 24 h) of over 100 µg/mL, an MIC ([14]; Escherichia coli, DC2, 24 h) of over 100 µg/mL and an MIC ([15]; Staphylococcus epidermidis, 3519, 24 h) of 0.39 µg/mL (≈ 0.484 µM). The MIC ([16]; ATCC9341, BHI agar, read-out: MIC) was 0.05 µg/mL (≈ 0.0621 µM), the MIC ([17]; Enterococcus faecium, ATCC8043, 24 h) was 0.2 µg/mL (≈ 0.248 µM) and the MIC ([18]; Streptococcus, 2548INDUC, 24 h) was 3.1 µg/mL (≈ 3.85 µM). It also gave an MIC ([19]; Escherichia coli, H560, 24 h) of over 100 µg/mL, an MIC ([20]; Acinetobacter, SPCMX669, 24 h) of over 100 µg/mL and an MIC ([21]; Providencia stuartii, CMX640, 24 h) of over 100 µg/mL. The MIC ([22]; Burkholderia cepacia, 2961, 24 h) was over 100 µg/mL, the MIC ([23]; Streptococcus equinus, A5169, 24 h) was 0.05 µg/mL (≈ 0.0621 µM) and the MIC ([24]; Klebsiella aerogenes, ATCC13048, 24 h) was over 100 µg/mL. The MIC ([25]; Micrococcus luteus, ATCC4698, 24 h) was 0.39 µg/mL (≈ 0.484 µM), the MIC ([26]; CMX686B, read-out: MIC) was 0.39 µg/mL (≈ 0.484 µM) and the MIC ([27]; Staphylococcus aureus, CMX503A, 24 h, read-out: MIC) was 0.39 µg/mL (≈ 0.484 µM). The MIC ([28]; Staphylococcus aureus, CMX553, 24 h, read-out: MIC) was 0.2 µg/mL (≈ 0.248 µM).
In the case of CC[C@H]1OC(=O)[C@H](C)[C@@H](O[C@H]2C[C@@](C)(OC)[C@@H](O)[C@H](C)O2)[C@H](C)[C@@H](O[C@@H]2O[C@H](C)C[C@H](N(C)C)[C@H]2O)[C@](C)(O)C[C@@H](C)[C@@H]2O[C@@]1(C)C(=NO)[C@H]2C [Example 18, (9S)-9-Deoxo-11,12-dideoxy-9,12-epoxy-11-hydroxyiminoerythromycin A], the MIC [1] is reported as 0.78 microgram/mL, the MIC [2] is reported as over 100 microgram/mL and the MIC [3] is reported as 0.2 microgram/mL. It also gave an MIC [4] of 0.39 microgram/mL, an MIC [5] of 0.02 microgram/mL and an MIC [6] of 6.2 microgram/mL. For the same molecule, the MIC ([7]; Escherichia coli JUHL, BHI agar, 20-24 h) was over 100 microgram/mL, the MIC [8] was 1.56 microgram/mL and the MIC [9] was 0.2 microgram/mL. The MIC ([10]; Pseudomonas aeruginosa A5007, BHI agar, 20-24 h) was over 100 microgram/mL, the MIC [11] was 0.05 microgram/mL and the MIC ([12]; Pseudomonas aeruginosa K799/WT, BHI agar, 20-24 h) was over 100 microgram/mL. For the same molecule, the MIC ([13]; Klebsiella pneumoniae ATCC 8045, BHI agar, 20-24 h) was over 100 microgram/mL, the MIC ([14]; Escherichia coli DC-2, BHI agar, 20-24 h) was over 100 microgram/mL and the MIC [15] was 0.39 microgram/mL. The MIC ([16]; BHI agar) was 0.1 microgram/mL, the MIC ([17]; Enterococcus faecium ATCC 8043, BHI agar, 20-24 h) was 0.2 microgram/mL and the MIC [18] was 1.56 microgram/mL. It also gave an MIC ([19]; Escherichia coli H560, BHI agar, 20-24 h) of over 100 microgram/mL, an MIC ([20]; Acinetobacter SP CMX 669, BHI agar, 20-24 h) of over 100 microgram/mL and an MIC ([21]; Providencia stuartii CMX 640, BHI agar, 20-24 h) of over 100 microgram/mL. It also gave an MIC [22] of over 100 microgram/mL, an MIC [23] of 0.1 microgram/mL and an MIC ([24]; Enterobacter aerogenes ATCC 13048, BHI agar, 20-24 h) of over 100 microgram/mL. For the same molecule, the MIC [25] was 0.1 microgram/mL, the MIC [26] was 0.2 microgram/mL and the MIC [27] was 0.2 microgram/mL. The MIC [28] was 0.2 microgram/mL.
